This data set can be described thus: Inhibition of ABCG2 efflux pump in multi-drug resistance human HL-60 cells assessed as reversal of daunorubicin sensitivity.

SMILES strings stand for the structures.

With `CO[C@@H]1[C@H](N(C)C(=O)c2ccccc2)C[C@H]2O[C@]1(C)n1c3ccccc3c3c4c(c5c6ccccc6n2c5c31)C(=O)NC4` [PKC-412], the IC50 worked out at 4.44 µM.

One may read the IC50 as the concentration that gives 50% inhibition.

The values above are taken from BindingDB's records for doi:10.1016/j.ejmech.2022.114542 (National Institute of Pharmaceutical Education and …, 2022).
